According to patent US8999957B2, “Heterocyclic compounds as ERK inhibitors” (Merck Sharp & Dohme Corp., priority 2010, dated 2015):

What follows are compounds tested against fully phosphorylated, active Mouse ERK2 protein (Mus musculus (Mouse), UniProt P63085) (assay: Active ERK2 (aERK) IMAP assay, condition 1). Details: aERK assay condition 1, 30 μM ATP.
Format: biochemical
Procedure: Active ERK2 (aERK) Assay: (Unless Indicated Otherwise, the Data Provided for aERK was obtained using Condition 1)
Activated ERK2 activity was also determined in the IMAP assay format using the procedure outlined above. […] Reactions proceeded for 30 minutes before termination by addition of 60 μl IMAP detection beads in binding buffer. Plates were read as above after 30 minute binding equilibration.

Sequence of fully phosphorylated, active Mouse ERK2 protein (P63085 whole entry): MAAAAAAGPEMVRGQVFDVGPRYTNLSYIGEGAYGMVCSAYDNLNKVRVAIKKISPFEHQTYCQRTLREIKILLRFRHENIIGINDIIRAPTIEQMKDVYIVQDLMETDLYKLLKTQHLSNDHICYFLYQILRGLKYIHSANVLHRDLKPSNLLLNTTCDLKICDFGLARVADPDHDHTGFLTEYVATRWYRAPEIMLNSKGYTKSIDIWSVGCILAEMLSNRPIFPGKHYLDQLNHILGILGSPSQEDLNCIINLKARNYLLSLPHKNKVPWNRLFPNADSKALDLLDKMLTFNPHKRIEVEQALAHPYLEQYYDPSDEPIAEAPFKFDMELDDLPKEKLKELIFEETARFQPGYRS

IC50	Compound
0.0405 µM	COC(=O)[C@@H]1CC[C@@H](NC(=O)c2ccc3[nH]nc(-c4ccncc4)c3c2)CN1Cc1c(F)cccc1OC
0.262 µM	CC(C)C(NC(=O)[C@@H]1CC[C@@H](NC(=O)c2ccc3[nH]nc(-c4ccncc4)c3c2)CN1Cc1ccccc1)C(C)C
0.105 µM	O=C(NC1CN(C(=O)OCc2ccccc2)CC(F)(F)C1)c1ccc2[nH]nc(-c3ccncc3)c2c1 (stereo not shown)
1 µM	O=C(N[C@@H]1CCCN(Cc2ccccc2C(F)(F)F)C1)c1ccc2[nH]nc(-c3ccc4c(c3)CCO4)c2c1
0.0174 µM	COc1cccc(F)c1CN1CC(NC(=O)c2ccc3[nH]nc(-c4ccncc4)c3c2)CC(F)(F)C1 (stereo not shown)
0.0225 µM	CN1CC(Cc2c(F)cccc2F)CC(NC(=O)c2ccc3[nH]nc(-c4nc5ccccc5s4)c3c2)C1 (stereo not shown)
0.241 µM	O=C(NC1CN(Cc2c(F)cccc2F)CC(F)(F)C1)c1ccc2[nH]nc(-c3ccncc3)c2c1 (stereo not shown)
0.0163 µM	COc1cccc(F)c1CN1CCC(F)C(NC(=O)c2ccc3[nH]nc(-c4ccc5nccn5c4)c3c2)C1 (stereo not shown)
0.3 µM	CC(C)Oc1ccc(-c2n[nH]c3ccc(C(=O)N[C@@H]4CN(C)CC[C@H]4c4ccccc4)cc23)cn1
0.0433 µM	O=C(NC1CCCCN(CCc2c(F)cccc2F)C1)c1ccc2[nH]nc(-c3ccncc3)c2c1 (stereo not shown)
0.133 µM	COC(=O)[C@H]1CC[C@@H](NC(=O)c2ccc3[nH]nc(-c4ccncc4)c3c2)CN1Cc1ccccc1
0.136 µM	O=C(NC12CC1CCN(Cc1c(F)cccc1F)C2)c1ccc2[nH]nc(-c3ccc4nccn4c3)c2c1 (stereo not shown)
0.0152 µM	COc1cccc(F)c1CN1C[C@H](C)C[C@H](NC(=O)c2ccc3[nH]nc(-c4ccc5ncsc5c4)c3c2)C1
0.144 µM	O=C(NC1CN(Cc2ccccc2)CC(F)(F)C1)c1ccc2[nH]nc(-c3ccncc3)c2c1 (stereo not shown)
0.00367 µM	COc1cccc(F)c1CN1C[C@@H](C)C[C@@H](NC(=O)c2ccc3[nH]nc(-c4ccc5nc(C)sc5c4)c3c2)C1
0.0134 µM	O=C(NC1CCCCN(CCc2cccc(F)c2)C1)c1ccc2[nH]nc(-c3ccncc3)c2c1 (stereo not shown)
0.234 µM	O=C(N[C@H]1CN(Cc2c(F)cccc2F)CC(F)(F)C1)c1ccc2[nH]nc(-c3ccc4nccn4c3)c2c1
0.835 µM	O=C(N[C@@H]1CCCNC1)c1ccc2[nH]nc(-c3ccncc3)c2c1
0.00309 µM	CCN1CC(Cc2c(F)cccc2F)CC(NC(=O)c2ccc3[nH]nc(-c4ccc5nn(C)cc5c4)c3c2)C1 (stereo not shown)
0.0623 µM	O=C(N[C@@H]1CCCN(Cc2c(F)cccc2F)C1)c1ccc2[nH]nc(-c3ccnc(Cl)c3)c2c1
0.0271 µM	O=C(N[C@@H]1CNCC[C@H]1c1ccccc1)c1ccc2[nH]nc(-c3ccc4c(c3)OCO4)c2c1
0.00873 µM	O=C(NC1CCCCN(CCc2ccccc2)C1)c1ccc2[nH]nc(-c3ccncc3)c2c1 (stereo not shown)
0.249 µM	O=C(NC1CCCCN(Cc2ccccc2)C1)c1ccc2[nH]nc(-c3ccncc3)c2c1 (stereo not shown)
0.0765 µM	Cc1cc(-c2n[nH]c3ccc(C(=O)N[C@@H]4CCCN(CC(F)(F)c5ccccc5)C4)cc23)ccn1
0.231 µM	COc1cccc(F)c1CN1CCCCC(NC(=O)c2ccc3[nH]nc(-c4ccncc4)c3c2)C1 (stereo not shown)
0.12 µM	O=C(N[C@@H]1CC[C@@H](C(=O)NCc2ccccc2)NC1)c1ccc2[nH]nc(-c3ccncc3)c2c1

IC50	Compound
0.0239 µM	COc1cccc(F)c1CN1C[C@H](NC(=O)c2ccc3[nH]nc(-c4ccc5nccn5c4)c3c2)CC(F)(F)C1
0.0854 µM	O=C(NC1CCCCN(CC2CCc3ccccc32)C1)c1ccc2[nH]nc(-c3ccncc3)c2c1 (stereo not shown)
0.822 µM	COc1cccc(F)c1CN1CCC[C@@H](NC(=O)c2ccc3[nH]nc(-c4ccc5nc(C(F)(F)F)nn5c4)c3c2)C1
0.375 µM	Cn1cc2cc(-c3n[nH]c4ccc(C(=O)N[C@H]5C[C@@H](C(F)(F)F)CN(Cc6c(F)cccc6F)C5)cc34)ccc2n1
0.0483 µM	CCNC(=O)[C@@H]1CC[C@@H](NC(=O)c2ccc3[nH]nc(-c4ccncc4)c3c2)CN1Cc1ccccc1 [drawing 353]
0.0616 µM	O=C(NC1COCCN(CCc2cccc(F)c2)C1)c1ccc2[nH]nc(-c3ccncc3)c2c1 (stereo not shown)
0.0151 µM	COc1cccc(F)c1CN1C[C@@H](C)C[C@@H](NC(=O)c2ccc3[nH]nc(-c4ccn5ncnc5c4)c3c2)C1
0.0169 µM	COCCOc1cccc(F)c1CN1CCC[C@@H](NC(=O)c2ccc3[nH]nc(-c4ccncc4)c3c2)C1
0.00383 µM	CN1CC(Cc2c(F)cccc2F)CC(NC(=O)c2ccc3[nH]nc(-c4ccn5ncnc5c4)c3c2)C1 (stereo not shown)
0.00834 µM	CN1CC(Cc2ccccc2)CC(NC(=O)c2ccc3[nH]nc(-c4ccncc4)c3c2)C1 (stereo not shown)
0.00145 µM	Cc1nc2ccc(-c3n[nH]c4ccc(C(=O)N[C@@H]5C[C@H](Cc6c(F)cccc6F)CN(C)C5)cc34)cn2n1
0.0407 µM	COC(=O)[C@@H]1CC[C@@H](NC(=O)c2ccc3[nH]nc(-c4ccncc4)c3c2)CN1Cc1ccccc1
0.0362 µM	O=C(N[C@@H]1CCCN(Cc2c(F)cccc2F)C1)c1ccc2[nH]nc(-c3ccncc3)c2c1
0.00481 µM	Cc1cc(-c2n[nH]c3ccc(C(=O)NC4CC(Cc5c(F)cccc5F)CN(C)C4)cc23)ccn1 (stereo not shown) [N-(5-(2,6-difluorobenzyl)-1-methylpiperidin-3-yl)-3-(2-methylpyridin-4-yl)-1H-indazole-5-carboxamide]
0.0669 µM	COc1cccc(F)c1CN1CCCC(NC(=O)c2ccc3[nH]nc(-c4ccnc(C)c4)c3c2)C1C (stereo not shown)
0.0139 µM	COc1cccc(F)c1CN1CCC[C@@H](NC(=O)c2ccc3[nH]nc(-c4ccncc4)c3c2)C1
0.0311 µM	COc1ccccc1CCN1CCCCC(NC(=O)c2ccc3[nH]nc(-c4ccncc4)c3c2)C1 (stereo not shown)
0.0501 µM	O=C(N[C@@H]1CNCC[C@H]1c1ccccc1)c1ccc2[nH]nc(-c3ccc4[nH]c(=O)[nH]c4c3)c2c1
0.0348 µM	O=C(CN1CCCCC(NC(=O)c2ccc3[nH]nc(-c4ccncc4)c3c2)C1)c1ccccc1 (stereo not shown)
0.0849 µM	CC(C)Oc1ccc(-c2n[nH]c3ccc(C(=O)N[C@@H]4CNCC[C@H]4c4ccccc4)cc23)cn1
0.0398 µM	Cn1cc2cc(-c3n[nH]c4ccc(C(=O)N[C@@H]5C[C@H](C(F)(F)F)CN(Cc6c(F)cccc6F)C5)cc34)ccc2n1
0.0211 µM	Cn1cc(-c2n[nH]c3ccc(C(=O)N[C@@H]4CCCN(Cc5ccccc5F)C4)cc23)ccc1=O
0.0452 µM	CC(C)Oc1ccc(-c2n[nH]c3ccc(C(=O)N[C@@H]4CNC[C@H](c5ccccc5)C4)cc23)cc1
0.00882 µM	CN1C[C@@H](Cc2c(F)cccc2F)C[C@@H](NC(=O)c2ccc3[nH]nc(-c4ccc5nonc5c4)c3c2)C1
0.127 µM	O=C(NC1CN(Cc2ccccc2F)CC(F)(F)C1)c1ccc2[nH]nc(-c3ccncc3)c2c1 (stereo not shown)
0.167 µM	COc1ccccc1CN1CC(NC(=O)c2ccc3[nH]nc(-c4ccncc4)c3c2)CC(F)(F)C1 (stereo not shown)

IC50	Compound
0.0229 µM	O=C(N[C@@H]1CCCN(Cc2ccc3occc3c2)C1)c1ccc2[nH]nc(-c3ccc4c(c3)CCO4)c2c1
0.35 µM	CN1C[C@H](NC(=O)c2ccc3[nH]nc(-c4ccncc4)c3c2)CC[C@H]1C(=O)NCc1ccccc1
0.457 µM	Cc1cccc(C)c1CN1CC(NC(=O)c2ccc3[nH]nc(-c4ccncc4)c3c2)CC(F)(F)C1 (stereo not shown)
0.0476 µM	Cc1nc2ccc(-c3n[nH]c4ccc(C(=O)N[C@@H]5C[C@@H](Cc6c(F)cccc6F)CN(C)C5)cc34)cn2n1
0.141 µM	CC(C)Oc1cc(-c2n[nH]c3ccc(C(=O)N[C@@H]4CNCC[C@H]4c4ccccc4)cc23)ccn1
0.301 µM	COc1cccc(F)c1CN1CCC[C@@H](NC(=O)c2ccc3[nH]nc(-c4ccc5nonc5c4)c3c2)C1
0.0283 µM	COc1cccc(F)c1CN1CCC[C@@H](NC(=O)c2ccc3[nH]nc(-c4ccc5ncsc5c4)c3c2)C1
0.0137 µM	O=C(N[C@@H]1CNCC[C@H]1c1ccccc1)c1ccc2[nH]nc(-c3ccc4[nH]ncc4c3)c2c1
0.369 µM	O=C(NC1CCCCN(Cc2ccccn2)C1)c1ccc2[nH]nc(-c3ccncc3)c2c1 (stereo not shown)
0.00271 µM	CN1CC(Cc2c(F)cccc2F)CC(NC(=O)c2ccc3[nH]nc(-c4ccc5ncsc5c4)c3c2)C1 (stereo not shown)
0.456 µM	COC[C@H]1CC[C@@H](NC(=O)c2ccc3[nH]nc(-c4ccncc4)c3c2)CN1Cc1c(F)cccc1OC
1 µM	CN1C[C@H](Cc2c(F)cccc2F)C[C@@H](NC(=O)c2ccc3[nH]nc(-c4ccc5nonc5c4)c3c2)C1
0.17 µM	Cc1cc(-c2n[nH]c3ccc(C(=O)N[C@@H]4CCCN(CC(F)(F)c5ccccc5F)C4)cc23)ccn1
0.0338 µM	Cn1cc2cc(-c3n[nH]c4ccc(C(=O)N[C@H]5CCN[C@H](Cc6ccccc6)C5)cc34)ccc2n1
0.0689 µM	COc1cccc(F)c1CN1CCC[C@@H](NC(=O)c2ccc3[nH]nc(-c4ccn5ncnc5c4)c3c2)C1
0.119 µM	CN1CC[C@@H](c2ccccc2)[C@H](NC(=O)c2ccc3[nH]nc(-c4ccc5c(c4)CCO5)c3c2)C1
0.3 µM	CCN1CC[C@@H](c2ccccc2)[C@H](NC(=O)c2ccc3[nH]nc(-c4ccc(OC(C)C)nc4)c3c2)C1
0.00241 µM	CNC(=O)[C@@H]1CC[C@@H](NC(=O)c2ccc3[nH]nc(-c4ccncc4)c3c2)CN1Cc1c(F)cccc1OC [drawing 383]
0.144 µM	COC(=O)[C@@H]1CC[C@@H](NC(=O)c2ccc3[nH]nc(-c4ccncc4)c3c2)CN1
0.005 µM	O=C(NC1CCCCN(CCc2ccccc2F)C1)c1ccc2[nH]nc(-c3ccncc3)c2c1 (stereo not shown)
0.0513 µM	CN(C)C(=O)[C@@H]1CC[C@@H](NC(=O)c2ccc3[nH]nc(-c4ccncc4)c3c2)CN1Cc1ccccc1
0.0736 µM	COc1cccc(F)c1CN1C[C@H](C)C[C@H](NC(=O)c2ccc3[nH]nc(-c4ccc5nsnc5c4)c3c2)C1
0.0981 µM	O=C(NC1CCCCN(CCc2ccc(F)cc2)C1)c1ccc2[nH]nc(-c3ccncc3)c2c1 (stereo not shown)
0.65 µM	CCN1CC[C@@H](c2ccccc2)[C@H](NC(=O)c2ccc3[nH]nc(-c4ccc(OC(C)C)cc4)c3c2)C1
0.00358 µM	COc1cccc(F)c1CN1C[C@H](NC(=O)c2ccc3[nH]nc(-c4ccncc4)c3c2)CCC1CO (stereo partly shown)

Compound	IC50
COc1cccc(F)c1CN1C2CCC(NC(=O)c3ccc4[nH]nc(-c5ccnc(C)c5)c4c3)C1CC2 (stereo not shown)	0.0204 µM
COc1cccc(F)c1CN1CCC(O[Si](C)(C)C(C)(C)C)C(NC(=O)c2ccc3[nH]nc(-c4ccc5nccn5c4)c3c2)C1 (stereo not shown)	0.318 µM
